From patent US5789431A, “Naphthoquinone antitumor compound and method” (The University of North Carolina at Chapel Hill, priority 1996, dated 1998)

Assays:
MALME-3M = assay: in vitro melanoma cell growth inhibition (NCI screen)
M14 = assay: as above
UACC-257 = assay: as above
UACC-62 = assay: as above
COLO-205 = assay: in vitro colon cancer cell growth inhibition (NCI screen)
HCT-116 = assay: as above
HCT-15 = assay: as above
SW 620 = assay: as above
RXF-393 = assay: in vitro renal cancer cell growth inhibition (NCI screen)
OVCAR-3 = assay: in vitro ovarian cancer cell growth inhibition (NCI screen)
MCF7/ADR-RES = assay: in vitro breast cancer cell growth inhibition (NCI screen)
MDA-MB-231/ATCC = assay: as above
MDA-MB-435 = assay: as above
MDA-N = assay: as above
T-47D = assay: as above
SK-OV-3 = assay: in vitro ovarian cancer cell growth inhibition (NCI screen)
PC-3 = assay: in vitro prostate cancer cell growth inhibition (NCI screen)
NCI-H522 = assay: in vitro non-small cell lung cancer cell growth inhibition (NCI screen)
human tumor cell lines = type: cell-based
SK-MEL-5 = assay: in vitro melanoma cell growth inhibition (NCI screen)
CCRF-CEM = assay: in vitro leukemia cell growth inhibition (NCI screen)
K-562 = assay: as above
MOLT-4 = assay: as above
RPMI-8226 = assay: as above
HCC-2998 = assay: in vitro colon cancer cell growth inhibition (NCI screen)
HT 29 = assay: as above
IGROV1 = assay: in vitro ovarian cancer cell growth inhibition (NCI screen)
OVCAR-4 = assay: as above; conditions: OVACR-4
HL-60(TB) = assay: in vitro leukemia cell growth inhibition (NCI screen)
SNB-75 = assay: in vitro CNS cancer cell growth inhibition (NCI screen)
U 251 = assay: as above
ACHN = assay: in vitro renal cancer cell growth inhibition (NCI screen)
UO-31 = assay: as above
NCI-H460 = assay: in vitro non-small cell lung cancer cell growth inhibition (NCI screen)
LOX1MVI = assay: in vitro melanoma cell growth inhibition (NCI screen)
SK-MEL-2 = assay: as above
SR = assay: in vitro leukemia cell growth inhibition (NCI screen)
HOP-92 = assay: in vitro non-small cell lung cancer cell growth inhibition (NCI screen)
SF-539 = assay: in vitro CNS cancer cell growth inhibition (NCI screen)
TK-10 = assay: in vitro renal cancer cell growth inhibition (NCI screen)
NCI-H23 = assay: in vitro non-small cell lung cancer cell growth inhibition (NCI screen)
MCF-7 = assay: in vitro breast cancer cell growth inhibition (NCI screen)
OVCAR-8 = assay: in vitro ovarian cancer cell growth inhibition (NCI screen)
BT-549 = assay: in vitro breast cancer cell growth inhibition (NCI screen)

Compound | cytotoxicity log GI50 (MALME-3M) | cytotoxicity log GI50 (M14) | cytotoxicity log GI50 (UACC-257) | cytotoxicity log GI50 (UACC-62) | cytotoxicity log GI50 (COLO-205) | cytotoxicity log GI50 (HCT-116) | cytotoxicity log GI50 (HCT-15) | cytotoxicity log GI50 (SW 620) | cytotoxicity log GI50 (RXF-393) | cytotoxicity log GI50 (OVCAR-3) | cytotoxicity log GI50 (MCF7/ADR-RES) | cytotoxicity log GI50 (MDA-MB-231/ATCC) | cytotoxicity log GI50 (MDA-MB-435) | cytotoxicity log GI50 (MDA-N) | cytotoxicity log GI50 (SK-OV-3) | cytotoxicity log GI50 (PC-3) | cytotoxicity log GI50 (NCI-H522) | cytotoxicity log GI50 (SK-MEL-5) | cytotoxicity log GI50 (CCRF-CEM) | cytotoxicity log GI50 (MOLT-4) | other results
CCNC1=C(NC(=O)c2ccccc2)C(=O)c2ccccc2C1=O [Compound 47] | -4.77 M | -4.58 M | -4.63 M | -4.70 M | -4.78 M | -4.59 M | -4.73 M | -4.63 M | -4.62 M | -4.47 M | -4.78 M | -5.21 M | -5.14 M | -5.31 M | -4.62 M | -4.74 M | -4.95 M | – | – | – | cytotoxicity log GI50 (T-47D): -4.85 M
CCCc1nc2c(n1CC)C(=O)c1ccccc1C2=O [Compound 24] | -4.65 M | – | -4.74 M | -4.59 M | – | – | -4.55 M | – | – | -4.49 M | -4.58 M | – | -4.76 M | -4.70 M | -4.66 M | – | -4.62 M | -4.53 M | -4.61 M | -4.77 M | GI50 (human tumor cell lines; Homo sapiens, cancer cell panel, general / most cell lines, read-out: logGI50 values in the cancer cell line panel (converted)): ~10 µM; cytotoxicity log GI50 (K-562): -4.51 M; cytotoxicity log GI50 (RPMI-8226): -4.50 M; cytotoxicity log GI50 (HCC-2998): -4.51 M; cytotoxicity log GI50 (HT 29): -4.73 M; cytotoxicity log GI50 (IGROV1): -4.57 M; cytotoxicity log GI50 (OVCAR-4): -4.49 M; cytotoxicity log GI50 (T-47D): -4.55 M
Cc1nc2c(n1CCCl)C(=O)c1ccccc1C2=O [Compound 21, 1-(2'-Chloroethyl)-2-methylnaphth[2,3-d]imidazole-4,9-dione] | -5.24 M | -5.33 M | -4.85 M | -4.89 M | -4.85 M | – | -5.10 M | – | -6.78 M | – | -4.79 M | -4.81 M | -4.82 M | – | -5.28 M | -5.07 M | – | – | – | -4.89 M | cytotoxicity against tumor cells (in words) (human tumor cell lines; cancer cell line panel): comparable to those of compounds 6-14; cytotoxicity log GI50 (HL-60(TB)): -4.79 M; cytotoxicity log GI50 (K-562): -4.80 M; cytotoxicity log GI50 (SNB-75): -4.84 M; cytotoxicity log GI50 (U 251): -4.90 M; cytotoxicity log GI50 (HT 29): -4.80 M; cytotoxicity log GI50 (ACHN): -6.32 M; cytotoxicity log GI50 (UO-31): -6.22 M; cytotoxicity log GI50 (IGROV1): -4.94 M; cytotoxicity log GI50 (OVCAR-4): -4.83 M; cytotoxicity log GI50 (NCI-H460): -4.83 M
COC(=O)CCC(=O)NC1=C(Nc2ccc(OC)cc2)C(=O)c2ccccc2C1=O [Compound 56] | – | -5.22 M | -5.37 M | -5.67 M | – | – | – | – | – | -5.48 M | – | -4.63 M | -5.69 M | -5.74 M | – | – | – | -5.75 M | – | – | cytotoxicity log GI50 (LOX1MVI): -5.41 M; cytotoxicity log GI50 (SK-MEL-2): -5.31 M; cytotoxicity log GI50 (SR): -5.16 M; cytotoxicity log GI50 (HOP-92): -5.66 M; cytotoxicity log GI50 (NCI-H460): -5.18 M
O=C(O)CCc1nc2c(n1Cc1ccccc1)C(=O)c1ccccc1C2=O [Compound 61] | – | -4.67 M | -4.47 M | -4.42 M | -4.47 M | -4.44 M | – | -4.50 M | -4.60 M | -4.55 M | – | -4.47 M | -4.72 M | -4.67 M | – | – | -4.62 M | -4.67 M | – | – | cytotoxicity log GI50 (LOX1MVI): -4.57 M; cytotoxicity log GI50 (SK-MEL-2): -4.59 M; cytotoxicity log GI50 (SF-539): -4.55 M; cytotoxicity log GI50 (TK-10): -4.47 M; cytotoxicity log GI50 (UO-31): -4.51 M; cytotoxicity log GI50 (HOP-92): -5.26 M; cytotoxicity log GI50 (NCI-H23): -4.52 M; cytotoxicity log GI50 (NCI-H460): -4.42 M
CCNC1=C(NC(=O)c2ccc(F)cc2)C(=O)c2ccccc2C1=O [Compound 48] | -4.72 M | -4.61 M | -4.80 M | -4.82 M | -4.58 M | -4.52 M | -4.51 M | -4.49 M | -4.53 M | -4.44 M | -4.56 M | – | -4.74 M | -4.47 M | -4.73 M | -4.76 M | -4.68 M | -4.46 M | -4.45 M | -4.52 M | cytotoxicity log GI50 (HCC-2998): -4.46 M; cytotoxicity log GI50 (HT 29): -4.65 M; cytotoxicity log GI50 (IGROV1): -4.50 M; cytotoxicity log GI50 (MCF-7): -4.52 M; cytotoxicity log GI50 (OVCAR-8): -4.49 M; cytotoxicity log GI50 (NCI-H23): -4.46 M
COC(=O)CCCC(=O)NC1=C(NCc2ccccc2)C(=O)c2ccccc2C1=O [Compound 51] | -4.81 M | -4.53 M | -4.53 M | -4.53 M | -4.62 M | – | – | – | – | -4.64 M | -4.56 M | – | -4.37 M | -4.38 M | – | – | – | – | -4.44 M | -4.47 M | cytotoxicity log GI50 (HL-60(TB)): -4.54 M; cytotoxicity log GI50 (SF-539): -4.44 M; cytotoxicity log GI50 (HCC-2998): -4.49 M; cytotoxicity log GI50 (MCF-7): -4.52 M; cytotoxicity log GI50 (BT-549): -4.54 M
